Measurements from ChEMBL document CHEMBL1201861, “Genomics of Drug Sensitity in Cancer screening data, Wellcome Trust Sanger Institute”.

How the values were obtained:
Assay in all cases: cells
Type in all cases: functional, cell-based
SK-MES-1 = settings: Homo sapiens
Description: SANGER: Inhibition of human SK-MES-1 cell growth in a cell viability assay.

NUGC-3 = settings: Homo sapiens
Description: SANGER: Inhibition of human NUGC-3 cell growth in a cell viability assay.

BHY = settings: Homo sapiens
Description: SANGER: Inhibition of human BHY cell growth in a cell viability assay.

D-542MG = settings: Homo sapiens
Description: SANGER: Inhibition of human D-542MG cell growth in a cell viability assay.

SIMA = settings: Homo sapiens
Description: SANGER: Inhibition of human SIMA cell growth in a cell viability assay.

HT-1080 = settings: Homo sapiens
Description: SANGER: Inhibition of human HT-1080 cell growth in a cell viability assay.

Ca-Ski = settings: Homo sapiens
Description: SANGER: Inhibition of human Ca-Ski cell growth in a cell viability assay.

HSC-2 = settings: Homo sapiens
Description: SANGER: Inhibition of human HSC-2 cell growth in a cell viability assay.

SW1990 = settings: Homo sapiens
Description: SANGER: Inhibition of human SW1990 cell growth in a cell viability assay.

BXPC-3 = settings: Homo sapiens
Description: SANGER: Inhibition of human BxPC-3 cell growth in a cell viability assay.

OVCAR-3 = settings: Homo sapiens
Description: SANGER: Inhibition of human OVCAR-3 cell growth in a cell viability assay.

SR = settings: Homo sapiens
Description: SANGER: Inhibition of human SR cell growth in a cell viability assay.

T47D = settings: Homo sapiens
Description: SANGER: Inhibition of human T47D cell growth in a cell viability assay.

LP-1 = settings: Homo sapiens
Description: SANGER: Inhibition of human LP-1 cell growth in a cell viability assay.

SN12C = settings: Homo sapiens
Description: SANGER: Inhibition of human SN12C cell growth in a cell viability assay.

MDA-MB-231 = settings: Homo sapiens
Description: SANGER: Inhibition of human MDA-MB-231 cell growth in a cell viability assay.

HSC-3 = settings: Homo sapiens
Description: SANGER: Inhibition of human HSC-3 cell growth in a cell viability assay.

NCI-H1694 = settings: Homo sapiens
Description: SANGER: Inhibition of human NCI-H1694 cell growth in a cell viability assay.

RL = settings: Homo sapiens
Description: SANGER: Inhibition of human RL cell growth in a cell viability assay.

C-33-A = settings: Homo sapiens
Description: SANGER: Inhibition of human C-33-A cell growth in a cell viability assay.

EVSA-T = settings: Homo sapiens
Description: SANGER: Inhibition of human EVSA-T cell growth in a cell viability assay.

NCI-H1437 = settings: Homo sapiens
Description: SANGER: Inhibition of human NCI-H1437 cell growth in a cell viability assay.

PC-14 = settings: Homo sapiens
Description: SANGER: Inhibition of human PC-14 cell growth in a cell viability assay.

HCC1599 = settings: Homo sapiens
Description: SANGER: Inhibition of human HCC1599 cell growth in a cell viability assay.

AU565 = settings: Homo sapiens
Description: SANGER: Inhibition of human AU565 cell growth in a cell viability assay.

UACC-812 = settings: Homo sapiens
Description: SANGER: Inhibition of human UACC-812 cell growth in a cell viability assay.

DK-MG = settings: Homo sapiens
Description: SANGER: Inhibition of human DK-MG cell growth in a cell viability assay.

NCI-H889 = settings: Homo sapiens
Description: SANGER: Inhibition of human NCI-H889 cell growth in a cell viability assay.

KMS-12-PE = settings: Homo sapiens
Description: SANGER: Inhibition of human KMS-12-PE cell growth in a cell viability assay.

NCI-H1623 = settings: Homo sapiens
Description: SANGER: Inhibition of human NCI-H1623 cell growth in a cell viability assay.

HCC1937 = settings: Homo sapiens
Description: SANGER: Inhibition of human HCC1937 cell growth in a cell viability assay.

NCI-H1563 = settings: Homo sapiens
Description: SANGER: Inhibition of human NCI-H1563 cell growth in a cell viability assay.

CWR22R = settings: Homo sapiens, 22Rv1
Description: SANGER: Inhibition of human 22RV1 cell growth in a cell viability assay.

LC4-1 = settings: Homo sapiens
Description: SANGER: Inhibition of human LC4-1 cell growth in a cell viability assay.

LCLC-103H cell line = settings: Homo sapiens
Description: SANGER: Inhibition of human LCLC-103H cell growth in a cell viability assay.

G-361 = settings: Homo sapiens
LoVo = settings: Homo sapiens
Description: SANGER: Inhibition of human LoVo cell growth in a cell viability assay.

Daoy = settings: Homo sapiens
Description: SANGER: Inhibition of human Daoy cell growth in a cell viability assay.

COLO-679 = settings: Homo sapiens
Description: SANGER: Inhibition of human COLO-679 cell growth in a cell viability assay.

MeWo = settings: Homo sapiens
Description: SANGER: Inhibition of human Mewo cell growth in a cell viability assay.

NCI-H345 = settings: Homo sapiens
Description: SANGER: Inhibition of human NCI-H345 cell growth in a cell viability assay.

Raji = settings: Homo sapiens
Description: SANGER: Inhibition of human Raji cell growth in a cell viability assay.

U-251 = settings: Homo sapiens
Description: SANGER: Inhibition of human U251 cell growth in a cell viability assay.

HCC1395 = settings: Homo sapiens
Description: SANGER: Inhibition of human HCC1395 cell growth in a cell viability assay.

EHEB = settings: Homo sapiens
Description: SANGER: Inhibition of human EHEB cell growth in a cell viability assay.

J82 = settings: Homo sapiens
Description: SANGER: Inhibition of human J82 cell growth in a cell viability assay.

NB12 = settings: Homo sapiens
Description: SANGER: Inhibition of human NB12 cell growth in a cell viability assay.

NCI-H441 = settings: Homo sapiens
Description: SANGER: Inhibition of human NCI-H441 cell growth in a cell viability assay.

NCI-N87 = settings: Homo sapiens
Description: SANGER: Inhibition of human NCI-N87 cell growth in a cell viability assay.

OVCAR-5 = settings: Homo sapiens
Description: SANGER: Inhibition of human OVCAR-5 cell growth in a cell viability assay.

NCI-H522 = settings: Homo sapiens
Description: SANGER: Inhibition of human NCI-H522 cell growth in a cell viability assay.

CAL-39 = settings: Homo sapiens
Description: SANGER: Inhibition of human CAL-39 cell growth in a cell viability assay.

NCI-H727 = settings: Homo sapiens
Description: SANGER: Inhibition of human NCI-H727 cell growth in a cell viability assay.

MDA-MB-157 = settings: Homo sapiens
Description: SANGER: Inhibition of human MDA-MB-157 cell growth in a cell viability assay.

CMK = settings: Homo sapiens
Description: SANGER: Inhibition of human CMK cell growth in a cell viability assay.

A2780 = settings: Homo sapiens
Description: SANGER: Inhibition of human A2780 cell growth in a cell viability assay.

OAW-42 = settings: Homo sapiens
Description: SANGER: Inhibition of human OAW-42 cell growth in a cell viability assay.

SNU-C1 = settings: Homo sapiens
Description: SANGER: Inhibition of human SNU-C1 cell growth in a cell viability assay.

CHL-1 = settings: Homo sapiens
Description: SANGER: Inhibition of human CHL-1 cell growth in a cell viability assay.

NCI-H1573 = settings: Homo sapiens
Description: SANGER: Inhibition of human NCI-H1573 cell growth in a cell viability assay.

A-375 = settings: Homo sapiens
Description: SANGER: Inhibition of human A375 cell growth in a cell viability assay.

SK-MM-2 = settings: Homo sapiens
Description: SANGER: Inhibition of human SK-MM-2 cell growth in a cell viability assay.

A-427 = settings: Homo sapiens
Description: SANGER: Inhibition of human A427 cell growth in a cell viability assay.

LOUCY = settings: Homo sapiens
Description: SANGER: Inhibition of human LOUCY cell growth in a cell viability assay.

Kasumi 1 = settings: Homo sapiens
Description: SANGER: Inhibition of human KASUMI-1 cell growth in a cell viability assay.

## CCNC(=O)c1noc(-c2cc(C(C)C)c(O)cc2O)c1-c1ccc(CN2CCOCC2)cc1 [LUMINESPIB]
SK-MES-1
  IC50: 0.00945 µM
NUGC-3
  IC50: 48.3 nM
BHY
  IC50: 19.1 nM
D-542MG
  IC50: 140 nM
SIMA
  IC50: > 256 nM
HT-1080
  IC50: 22.1 nM
Ca-Ski
  IC50: 37.8 nM
HSC-2
  IC50: 5.18 nM
SW1990
  IC50: 27.2 nM
BXPC-3
  IC50: 43.4 nM
OVCAR-3
  IC50: 141 nM
SR
  IC50: 27.9 nM
T47D
  IC50: > 256 nM
LP-1
  IC50: > 256 nM
SN12C
  IC50: 247 nM
MDA-MB-231
  IC50: 90.8 nM
HSC-3
  IC50: 6.41 nM
NCI-H1694
  IC50: > 256 nM
RL
  IC50: > 0.256 µM
C-33-A
  IC50: 15.1 nM
EVSA-T
  IC50: 92.7 nM
NCI-H1437
  IC50: 63.3 nM
PC-14
  IC50: 19.3 nM
HCC1599
  IC50: 96 nM
AU565
  IC50: 118 nM
UACC-812
  IC50: > 0.256 µM
DK-MG
  IC50: 0.0753 µM
NCI-H889
  IC50: > 0.256 µM
KMS-12-PE
  IC50: 129 nM
NCI-H1623
  IC50: > 256 nM
HCC1937
  IC50: 44.6 nM
NCI-H1563
  IC50: > 256 nM
CWR22R
  IC50: 35.1 nM
LC4-1
  IC50: 115 nM
LCLC-103H cell line
  IC50: 4.3 nM
G-361
  IC50: 26.8 nM
LoVo
  IC50: 39.3 nM
Daoy
  IC50: 6.95 nM
COLO-679
  IC50: 31.1 nM
MeWo
  IC50: > 256 nM
NCI-H345
  IC50: > 256 nM
Raji
  IC50: > 256 nM
U-251
  IC50: 47.6 nM
HCC1395
  IC50: > 0.256 µM
EHEB
  IC50: 25.6 nM
J82
  IC50: 30.1 nM
NB12
  IC50: 95.2 nM
NCI-H441
  IC50: 0.109 µM
NCI-N87
  IC50: 78 nM
OVCAR-5
  IC50: 18.1 nM
NCI-H522
  IC50: 19.4 nM
CAL-39
  IC50: 14.2 nM
NCI-H727
  IC50: 10.3 nM
MDA-MB-157
  IC50: > 256 nM
CMK
  IC50: < 1 nM
A2780
  IC50: 17.1 nM
OAW-42
  IC50: 37.5 nM
SNU-C1
  IC50: > 0.256 µM
CHL-1
  IC50: 41.7 nM
NCI-H1573
  IC50: 177 nM
A-375
  IC50: 21.7 nM
SK-MM-2
  IC50: 111 nM
A-427
  IC50: 13 nM
LOUCY
  IC50: 5.05 nM

## CC(C)=CC[C@@H](O)C1=CC(=O)c2c(O)ccc(O)c2C1=O [SHIKONIN]
SK-MES-1
  IC50: 6.29 µM
NUGC-3
  IC50: 765 nM
BHY
  IC50: 564 nM
D-542MG
  IC50: 581 nM
SIMA
  IC50: 2320 nM
HT-1080
  IC50: 260 nM
Ca-Ski
  IC50: 650 nM
HSC-2
  IC50: 223 nM
SW1990
  IC50: 1620 nM
BXPC-3
  IC50: 334 nM
OVCAR-3
  IC50: 383 nM
SR
  IC50: 141 nM
T47D
  IC50: 223 nM
LP-1
  IC50: 686 nM
SN12C
  IC50: 1760 nM
MDA-MB-231
  IC50: 1020 nM
HSC-3
  IC50: 337 nM
NCI-H1694
  IC50: 840 nM
RL
  IC50: > 16 µM
C-33-A
  IC50: 913 nM
EVSA-T
  IC50: 410 nM
NCI-H1437
  IC50: 1560 nM
PC-14
  IC50: 1510 nM
HCC1599
  IC50: 388 nM
AU565
  IC50: 1240 nM
UACC-812
  IC50: 5.08 µM
Kasumi 1
  IC50: 124 nM
DK-MG
  IC50: 9.82 µM
NCI-H889
  IC50: > 16 µM
KMS-12-PE
  IC50: 559 nM
NCI-H1623
  IC50: 2730 nM
HCC1937
  IC50: 1660 nM
NCI-H1563
  IC50: 626 nM
CWR22R
  IC50: 4610 nM
LC4-1
  IC50: 360 nM
LCLC-103H cell line
  IC50: 346 nM
G-361
  IC50: 473 nM
LoVo
  IC50: 1340 nM
Daoy
  IC50: 159 nM
COLO-679
  IC50: 184 nM
MeWo
  IC50: 517 nM
NCI-H345
  IC50: 990 nM
Raji
  IC50: 631 nM
U-251
  IC50: 1430 nM
HCC1395
  IC50: 15.7 µM
EHEB
  IC50: 2090 nM
J82
  IC50: 143 nM
NB12
  IC50: 666 nM
NCI-H441
  IC50: 15.8 µM
NCI-N87
  IC50: 2940 nM
OVCAR-5
  IC50: 1120 nM
NCI-H522
  IC50: 560 nM
CAL-39
  IC50: 483 nM
NCI-H727
  IC50: 638 nM
MDA-MB-157
  IC50: 637 nM
CMK
  IC50: 352 nM
A2780
  IC50: 2560 nM
OAW-42
  IC50: 578 nM
SNU-C1
  IC50: > 16 µM
CHL-1
  IC50: 168 nM
A-375
  IC50: 311 nM
SK-MM-2
  IC50: 499 nM
A-427
  IC50: 18 nM
LOUCY
  IC50: 586 nM
